Consider two molecules from US20240074986A1, “Methods of Enhancing Non-Viral Gene Therapy” (Spark Therapeutics, Inc., priority 2020, published 2024).

Test [1] concerns CLEC4F+ Kupffer cells. The experiment in a line: Liver histology, anti-CLEC4F staining, depletion efficacy (Example 3). The test is classed as in vivo, Balb/C mice. The conditions noted are these: for Kupffer cell depletion (CLEC4F+ staining): clodronate IV 50 or 17 mpk, anti-CD115 IP 12 mpk 1 or 4 doses, pexidartinib oral gavage 100 mpk 4 doses, FIG. 5A. As for the experimental part:
(§1) Balb/C mice were treated with the immune cell depletion agents clodronate, anti-CD115 antibody (as described in Example 1), or pexidartinib. Clodronate was provided by IV administration at 50 mpk (1.25 mg) or 17 mpk (425 μg), anti-CD115 antibody was provided by IP administration at 12 mpk (300 μg) 1 dose vs 4 doses. Anti-CD115 antibody was as described in Example 1. Pexidartinib was provided by oral gavage administration at 100 mpk (2.5 mg) 4 doses. A no-treatment mice group was used as a control. Each group contained 5 male BALB/c mice.
(§2) After the treatment, mice were euthanized and the liver samples were harvested for histology. Liver samples were stained with either anti-CLEC4F or anti-CD68 mouse antibody. Individual scores of the treatment groups were normalized by the no-treatment group to calculate depletion efficacy.
(§3) Pexidartinib was mixed with mice chow at 400 mg Pex/kg chow. Liver histology was taken after mice were fed with Pex-chow for 7 or 21 days.

In test [2] the test system is CD68+ macrophages. The experiment in a line: Liver histology, anti-CD68 staining, depletion efficacy (Example 3). The test is classed as in vivo, Balb/C mice. The conditions noted are these: for CD68+ macrophage depletion: clodronate IV 50 or 17 mpk, anti-CD115 IP 12 mpk 1 or 4 doses, pexidartinib oral gavage 100 mpk 4 doses, FIG. 5B. As for the experimental part: as §1, §2, §3

Test [3] deals with hFIX. The experiment in a line: hFIX levels in mouse plasma by ELISA after pexidartinib chow and DNA-LNP-5 (Example 4). The format is in vivo. The settings on record: DNA-LNP-5 10 μg per mouse; 1-4 weeks after dosing; Pex chow 7 or 21 days before dosing or regular chow; FIG. 7. As to the method: Pexidartinib was mixed with mice chow at 400 mg Pex/kg chow. In group 2 and group 3, mice chow was replaced with Pex chow at 21 days and 7 days before DNA-LNP-5 dosing.
Mice in group 1 were fed with regular chow throughout the study and served as controls. Mice were dosed with DNA-LNP-5 (10 μg per mouse). LNP-5 (GenVoy™ LNP) was obtained from Precision NanoSystems Inc.) and contained: ionizable lipid at 50%; DSPC at 10%; cholesterol 37.5%; and stabilizer (PEG-Lipid) at 2.5% (see Roces et al., Pharmaceutics, 2020 12, 1095.) DNA was as described in Example 1. hFIX levels in mouse plasma were quantified using ELISA 1-4 weeks after dosing.
In general terms: ELISA stands for enzyme-linked immunosorbent assay.

The subject of test [4] is INF-γ and/or IL-6. In words: Plasma pro-inflammatory cytokines by MSD 6 hours post-dose (Example 2). The format is in vivo, mice (Balb/c). The conditions noted are these: 6-hour post-dose plasma; SPK-LNP1 50 μg; FIGS. 3A and 3B. As to the method:
The effects of immune cell depletion on cytokine release and on transgene expression were studied using an anti-CD115 antibody in combination with clodronate, which is a toxic agent encapsulated in liposomes to induce monocyte/macrophage apoptosis.
FIX transgene DNA plasmid (50 μg), formulated in lipid nanoparticle (LNP) delivery vehicles (SPK-LNP1), was dosed in mice (n=5; Balb/c; Jackson Laboratory) by intravenous administration alone, or in combination with anti-CD115 antibody and/or clodronate (purchased from Liposoma), as outlined in Table 3. SPK-LNP-1 had the following composition: C12-200 lipid at 35%; DOPE at 16%; cholesterol at 46.5%; and C14-PEG2000 (Avanti® Polar Lipids) at 2.5%. DNA and anti-CD115 antibody were as described in Example 1.
6-hour post-dose plasma samples were analyzed for a panel of pro-inflammatory cytokines using MSD: IL-6, IFN-γ, TNF-α and IL-1β.

SMILES strings stand for the structures.

Turning to `FC(F)(F)c1ccc(CNc2ccc(Cc3c[nH]c4ncc(Cl)cc34)cn2)cn1` [Pexidartinib, pexidartinib], the “Kupffer cell depletion (CLEC4F+ staining)” value in test [1] is given as “small impact”. The “depletion of CLEC4F+ Kupffer cells” value in test [1] (mixed with mice chow at 400 mg Pex/kg chow, fed 7 or 21 days, FIG. 6B) is given as “significant depletion”. In test [2], the “CD68+ macrophage depletion” value was “no impact”. For the same molecule, in test [2] (mixed with mice chow at 400 mg Pex/kg chow, fed 7 or 21 days, FIG. 6A), the “depletion of CD68+ macrophages” value is recorded as “significant depletion”. Also, the “hFIX levels in mouse plasma” value in test [3] is “a few mice in Pex-treated groups showed detectable expression”.

For the molecule `O=P(O)(O)C(Cl)(Cl)P(=O)(O)O` [clodronate], the “cytokine (INF-γ and/or IL-6) levels following DNA-LNP administration” value in test [4] is “moderately reduced”. Besides, the “Kupffer cell depletion (CLEC4F+ staining)” value in test [1] is given as “significant effect”. For the same molecule, the “CD68+ macrophage depletion” value in test [2] is on record as “significant effect”.
